Test system: micturition reflex, conscious male Sprague Dawley rats
Assay: Continuous Slow Transvesicular Infusion (CSTI) rat model
Format: in vivo
Set-up: key to Effect of MCH1 antagonist in the CSTI model: B = Produced an increase in bladder capacity in rats relative to baseline capacity

`COCC1=C(C(=O)OC)[C@H](c2ccc(F)c(F)c2)N(C(=O)NCCCN2CCC(c3cccc(NC(C)=O)c3)CC2)C(=O)N1` [Example 10, (+)-1,2,3,6-TETRAHYDRO-1-{N-[4-(3,-ACETAMIDO)-PHENYLPIPERIDIN-1-YL]PROPYL}CARBOXAMIDO-4-METHOXYMETHYL-6-(3,4-DIFLUORO-PHENYL)-2-OXOPYRIMIDINE-5-CARBOXYLIC ACID METHYL ESTER] was tested, and the “bladder capacity (% basal)” value (0.03 mg/kg, p.o., n=6 each, p<0.05) was “Significantly different from corresponding vehicle control” and the “Effect of MCH1 antagonist in the CSTI model” value (bladder capacity, intragastric) was “B”.

Source: patent US20040038855A1 (priority 1999, published 2004)
